According to patent US9029080B2, “Screening assay for insecticides” (priority 2008, dated 2015):
Blank lines part the entries; values can stand above or below the compound they belong to.

Key:
[1] = biological target: T1, ShaI_delN (Drosophila melanogaster, UniProt P17971); test: ShaI_delN clonal lines, FLIPR blue membrane potential dye, KCl depolarization; assay type: cell-based; settings: 4-5 mM, dye loaded 1 hr at RT
T1 construct: expressed in transfected cells; host or cells: CHO
Experimental: ShaI_DelN C10 and C15 were tested for function on the FLIPR using the Molecular Devices blue membrane potential dye. The cells were seeded at 60K cells/well in 96-well Costar plates in complete media and assayed for function at 24 hrs. Depolarization with 15-60 mM KCl caused a 2-2.8 fold higher activity in the clonal line than the pcDNA control cell line (FIG. 5). Clone 10 had slightly higher activity than clone 15.
FIG. 5: ShaI_DelN clones tested on FLIPR with KCl depolarization. We also tested some known K-channel blockers on channel activity on the FLIPR (FIG. 6). […] The ShaI_delN clonal cell lines lost their GFP expression and assay window with cell passage. At passage 12, only 10-15% of the cell population was GFP positive.
(§1) The effects of barium (Ba2+) on ShaI_delN function were tested. Barium is known to inhibit some open rectifier and inward rectifier K-channel activities. Cells were dye loaded in the presence of BaCl2 for 1 hr at RT and assayed on the FLIPR using KCl depolarization for channel activation.

[2] = test system: CHO_pcDNA3 control cells; test: CHO_pcDNA3 control cells, FLIPR KCl depolarization; assay type: cell-based, Chinese hamster; settings: 4-5 mM, dye loaded 1 hr at RT
Experimental: as §1

[3] = biological target: T2, ShaI (Drosophila melanogaster, UniProt P17971); test: ShaI electrophysiology (patch clamp); assay type: cell-based
T2 construct: expressed in transfected cells; host or cells: CHO
T2 sequence (P17971 1-490 isoform P17971-1): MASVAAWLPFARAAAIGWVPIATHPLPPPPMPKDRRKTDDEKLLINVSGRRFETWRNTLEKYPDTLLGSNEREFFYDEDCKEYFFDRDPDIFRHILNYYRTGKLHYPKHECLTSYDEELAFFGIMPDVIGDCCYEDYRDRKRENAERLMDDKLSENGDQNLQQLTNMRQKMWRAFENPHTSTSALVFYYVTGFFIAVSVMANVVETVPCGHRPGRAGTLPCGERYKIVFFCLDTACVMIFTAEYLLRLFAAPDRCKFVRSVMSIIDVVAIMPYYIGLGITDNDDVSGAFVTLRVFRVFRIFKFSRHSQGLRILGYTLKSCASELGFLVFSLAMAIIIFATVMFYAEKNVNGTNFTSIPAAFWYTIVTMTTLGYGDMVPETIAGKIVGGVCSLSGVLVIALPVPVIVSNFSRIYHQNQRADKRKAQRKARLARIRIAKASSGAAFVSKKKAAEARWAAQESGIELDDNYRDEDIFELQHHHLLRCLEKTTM
Experimental: Data were acquired and analyzed using pClamp software (version 9.0.1.16). The whole-cell configuration of the patch-clamp technique was used to voltage clamp cells at room temperature (22-25° C.). Pipettes were pulled from borosilicate glass capillaries (#8250, Garner Glass, Claremont, Calif.) using a DMZ Universal Puller (Zeitz, Munich, Germany) and had resistances of 1-2 MOhm when filled with pipette solution and measured in bath solution. The liquid junction potential between bath and pipette solution was always compensated before the formation of a gigaohm seal.
Membrane current was measured under whole-cell clamp, sampled at 2 kHz and filtered at 1 kHz by an Axoclamp 200B (Axon Instruments). Capacitance currents were electronically compensated at the beginning of each experiment. P/4 leak correction was applied.
To study ShaI currents on CHO cells, cells were held at −70 mV and a family of 500 ms test voltage pulses was applied starting from −70 to +70 mV, or +100 mV, in 10 mV increments. The amplitude, as measured for the current-voltage relationship, was defined as the maximal current at a given membrane potential.

[4] = test system: calcium-activated potassium currents; settings: DUM neurons from cockroaches; cited from earlier work
[5] = biological target: T3, DmSK Potassium Channel (Drosophila melanogaster, UniProt Q7KVW5); test: Xenopus laevis oocyte two-electrode voltage clamp of DmSK; assay type: cell-based; settings: intracellular injection of 100 mM, oocytes clamped at +5 mV
T3 construct: expressed in transfected cells; host or cells: Xenopus laevis oocytes injected with in vitro transcribed RNA
Experimental: Purpose: To utilize the oocyte two-electrode voltage clamp expression system to assay functional expression of the […] Drosophila melanogaster small-conductance calcium-activated potassium channel (SK) within Xenopus laevis oocytes.
Stage V-VI oocytes were injected with 50 nl of in vitro transcribed DmSK RNA (1 ug/ul) using a Drummond Nanoject Injector (pCRII-SK2+4D plasmid linearized with HindIII and transcribed using the Ambion T7 mMessage mMachine transcription kit).
Channel expression was assayed using two-electrode voltage clamp (borosilicate glass 1.5 mm×1.12 mm filled with 3M KCl) through a Turbo Tec 10C Amplifier (NPI Instruments) connected to an Apple PowerMac G3 via an ADInstruments PowerLab system.
Injected oocytes with resting potentials greater than −30 mV were clamped at +5 mV and perfused with ND-96 bath solution (96 mM NaCl, 2 mM KCl, 1 mM MgCl2, 0.3 mM CaCl2, 5 mM HEPES at pH 7.5 and 230 mOsm) Currents measured were filtered at 2 kHz and with a 50/60 Hz HumBug noise eliminator.
SK channels were activated with intracellular injection of 100 mM […] (9.2 nl) using the nanoject while clamped. Measured currents were compared to published results of SK activation within oocytes (FIG. 85).

[6] = biological target: T4, DmSK (Drosophila melanogaster, UniProt Q7KVW5); test: DmSK CHO membrane potential dye assay, ionomycin activation; assay type: cell-based
T4 construct: The resulting construct contains the SK CDS downstream of the CMV promoter; expressed in transfected cells; host or cells: CHO-K1 (pool 3 / clone SK3 and subclones)
Experimental: Basic test protocol: Cells were plated at 5×10^4/well into 96-well poly-D-lysine assay plates (BD Biosciences) and placed at 37 C/5% CO2 the day before testing. Culture medium was aspirated and replaced with 0.4× blue membrane potential dye (Molecular Devices Corporation) in assay buffer and incubated for 1 hour at RT. The assay was run by reading baseline fluorescence for 20 sec, and reading an additional 60 or 180 sec after activation.
This assay was developed using the Molecular Devices blue membrane potential dye at 0.4× the normal concentration. It is important to vortex the dye upon hydration and rinse the vial repeatedly to ensure that all the dye has been recovered and that it is in solution. The dye can be stored during the day at 4°. Dye loading is carried out by flipping the culture medium from the 96-well poly-D-lysine plate, gently tapping the plate on Kimwipes to remove excess medium, replacing it with 180 ul 0.4× dye per well, and incubating in the dark at room temperature (25° C.-28° C.) for 3-5 hr. The assay plate is now ready for testing which comprises a 20 ul (10×) first addition and 50 ul (5×) second addition. 50 uM propafenone [final] is used as a control inhibitor. The assay is read for three minutes after activation to allow maximum window development relative to controls. […]

[7] = Ionomycin stability in solution; assay type: physicochemical; settings: 5 uM in assay buffer, SK activation
Experimental: An experiment was conducted (data not shown) to examine the stability of ionomycin in solution. Ionomycin was diluted to 5 uM in assay buffer, loaded into a compound plate and compared with freshly-prepared ionomycin for SK activation the following day. The freshly-prepared ionomycin yielded a statistically significant 6% increase in assay window size, so our recommendation is for freshly-prepared ionomycin.

[8] = biological target: T5, octopamine receptor (OctR, CG6919 dmOa2) (Drosophila melanogaster, UniProt Q9VCZ3); test: OctR clone 55 FLIPR Fluo-4 calcium assay; assay type: cell-based
T5 construct: expressed in transfected cells; host or cells: CHO stably expressing G-alpha-16
Experimental: FIG. 62. Cells were plated at 10K/well in 384 well plates and allowed to incubate overnight at […]. The cells were assayed 18-24 hours after seeding. Media was removed and cells were dye loaded for 60 minutes with 2 μM Fluo-4. After 1 hour, dye was removed and 20 μl of buffer added to the plate and placed into FLIPR. The 1st addition was antagonist dose response curves and the 2nd addition was agonist dose response curves. Antagonists were challenged with 100 nM Octopamine. In addition, these compounds were tested in the parental cell line CHO-Galpha16.
Cells were plated at 10,000 cells/well in 50 μl into 384-well black TC plates and allowed to incubate overnight at 37° C./5% CO2. The cells were assayed 18-24 hours after seeding. Culture medium was removed by flicking and cells were dye loaded for 60 minutes with 20 μl of 2 μM Fluo-4 in assay buffer plus probenecid at 25° C. After one hour dye was removed by flicking and 20 μL of assay buffer was added, wait 5 min prior to placing into the FLIPR and run using a two-addition protocol. The first addition (20 ul, 2×) was 0.5% DMSO final in assay buffer. The second addition (20 ul, 3×) was either assay buffer or 100 nM octopamine final.

[9] = Stability of octopamine solutions; assay type: physicochemical
Experimental: Octopamine was tested comparing freshly diluted versus a 24-hour solution (data not shown). The response obtained with the 24-hour solution stored at room temperature was identical to that of the freshly diluted solution. We have repeatedly […]

[10] = biological target: T6, octopamine receptor (OctR) (Drosophila melanogaster, UniProt Q9VCZ3); test: Transient OctR expression in CHO G-alpha-16 cells, Fluo-4, Discovery microscope; assay type: cell-based
T6 construct: various amounts of untagged OctR-pcDNA3.1 DNA were transfected into CHO cells; expressed in transfected cells; host or cells: CHO stably expressing G-alpha-16, transient transfection
T6 sequence (Q9VCZ3 1-508): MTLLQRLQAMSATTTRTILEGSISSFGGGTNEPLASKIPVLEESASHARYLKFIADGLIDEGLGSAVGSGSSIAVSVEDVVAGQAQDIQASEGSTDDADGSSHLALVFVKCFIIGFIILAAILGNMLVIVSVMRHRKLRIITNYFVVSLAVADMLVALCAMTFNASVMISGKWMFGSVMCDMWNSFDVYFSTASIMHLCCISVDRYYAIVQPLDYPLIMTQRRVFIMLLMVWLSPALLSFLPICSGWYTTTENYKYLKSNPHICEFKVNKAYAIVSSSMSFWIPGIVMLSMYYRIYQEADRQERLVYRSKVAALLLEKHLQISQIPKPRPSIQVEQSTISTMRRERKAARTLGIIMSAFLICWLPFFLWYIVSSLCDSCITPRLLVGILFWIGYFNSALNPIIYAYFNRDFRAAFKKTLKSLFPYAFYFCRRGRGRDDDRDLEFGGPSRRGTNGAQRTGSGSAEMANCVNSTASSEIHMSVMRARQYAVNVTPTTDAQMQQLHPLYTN
Experimental: The untagged and GFP-tagged versions of OctR, which natively couples to cAMP, were transiently expressed in CHO cells stably expressing the G-alpha-16 promiscuous G protein, which signals through calcium. This allowed activation of the receptor to be measured by calcium-sensing fluorescent dyes.
In FIG. 55A, various amounts of untagged OctR-pcDNA3.1 DNA were transfected into CHO cells (6-well dish, 300,000 cells/well) and tested for function at 48 hours using Fluo-4 dye on the Discovery microscope. The graph shown below represents an average of all single-cell readings from cells expressing the cyan vector. It is assumed that the majority of cells expressing the cyan vector also express OctR.
FIG. 55. Calcium-sensing Fluo-4 fluorescent dye response to octopamine or tyramine stimulation in CHO cells stably expressing G-alpha-16 and transiently expressing increasing amounts of untagged or GFP-tagged OctR-pcDNA3.1. Cells cotransfected with pAmCyan vector as a marker of transfected cells were stimulated with a maximal dose of octopamine or sub-maximal dose of tyramine. Well averages of single-cell response measured on the Discovery microscope are graphed above.

SMILES: [Ba+2] [Ba2+]
- ShaI_delN channel activity with KCl depolarization [1]: without any significant reduction
- fluorescent responses with KCl depolarization [2]: significantly reduced fluorescent responses
- ShaI outward currents [3]: not inhibited

SMILES: CSSC [DMDS, di-methyl disulfide]
- effect on calcium-activated potassium currents [4]: inhibits calcium-activated potassium currents

SMILES: [Cl][Cd][Cl] [cadmium chloride]
- activation of DmSK outward currents [5]: outward currents activated by at least three 9.2 nl injections

SMILES: C[C@H](CCC(=O)O)C[C@H](C)C[C@H](C)C(=O)/C=C(\O)[C@H](C)C[C@H](C)C/C=C/[C@@H](C)[C@@H](O)[C@@H](C)[C@@H](O)C[C@@H]1CC[C@@](C)([C@H]2CC[C@@](C)([C@@H](C)O)O2)O1 [ionomycin]
- EC50 [6]: 200 nM
- concentration above which no increase in response window ([6]; SK3, relative to controls): 800 nM
- increase in assay window size, freshly-prepared versus solution of the day before [7]: 6%

- 80% octopamine control concentration ([8]; 20-plate DMSO test run, 2nd addition): 100 nM
- activity after repeated freeze-thaw ([9]; 10 mM DMSO stocks): no reduction in activity
- response of 24-hour solution versus freshly diluted solution ([9]; stored at room temperature, data not shown): identical
SMILES: NCC(O)c1ccc(O)cc1 (centres unmarked) [octopamine]
- rank order of potency (agonists) ([8]; clone 55, same as published cAMP data): naphazoline>octopamine>amitraz>clonidine>tolazoline

- efficacy relative to octopamine ([10]; preliminary data and published reports): only slightly less efficacious
- activation of octopamine receptor ([10]; sub-maximal dose): activated by tyramine
SMILES: NCCc1ccc(O)cc1 [tyramine]
